Earlier results in patent publication US20060148877A1, “Pharmaceutical formulations of celcoxib” (TransForm Pharmaceuticals, Inc., priority 2002, published 2006).

Conditions: commercially available form (CELEBREX), neutral molecule

Q: With `Cc1ccc(-c2cc(C(F)(F)F)nn2-c2ccc(S(N)(=O)=O)cc2)cc1` [celecoxib, 4-[5-(4-methylphenyl)-3-(trifluoromethyl)-1H-pyrazol-1-yl]benzenesulfonamide] as the compound, how does the solubility in water read?
A: essentially insoluble in water
